# Laboratory results reported in patent US20260001928A1 (CORTERIA PHARMACEUTICALS, priority 2022, published 2026).
# *1 amine or outer side, *2 acyl side, *3 side chain or, on linkers, in order; H or OH if unused. Where a SMILES comes first, the peptide text is derived from it. Side-chain parts run from the residue outwards. [ ]: non-standard residue; d: D form. The star is where a group is joined. C20 diacid = O=C(O)CCCCCCCCCCCCCCCCCCC(=O)*; γGlu = O=C(O)[C@H](CCC(=O)[*:2])N[*:1]; NMeI = CC[C@H](C)[C@H](NC)C(=O)O; Decanoyl = CCCCCCCCCC(=O)*; Pentanoyl = CCCCC(=O)*; AEEA = NCCOCCOCC(=O)O; Aib = CC(C)(N)C(=O)O
# Test system: human LAD2 cells
# Format: cell-based
# Outline: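 Mast cell degranulation: cells exposed to peptides for 30 min at final concentrations from 50, 100 or 300 down to 0.1 or 0.001 μM, with 0.5% DMSO where used, in biological duplicates. β-hexosaminidase release was read with a fluorogenic 4-methylumbelliferyl substrate as supernatant/(supernatant + Triton-lysed pellet) × 100. EC50 came from a 4-parameter sigmoidal fit.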
row,EC50 [µM],SMILES
1,> 300,CC[C@H](C)[C@H](NC(C)=O)C(=O)N[C@H](C(=O)N[C@@H](CC(C)C)C(=O)N[C@@H](CO)C(=O)N[C@@H](CC(C)C)C(=O)N[C@@H](CC(=O)O)C(=O)N[C@@H](C(=O)N1CCC[C@H]1C(=O)N[C@H](C(=O)N[C@@H](CCCCN)C(=O)N[C@@H](CC(C)C)C(=O)N[C@@H](CCCCNC(=O)CC[C@H](NC(=O)CCCCCCCCCCCCCCCCCCC(=O)O)C(=O)O)C(=O)N[C@@H](CCCCN)C(=O)N[C@H](C(=O)N[C@@H](CC(C)C)C(=O)N[C@@H](CC(C)C)C(=O)N[C@@H](CCC(=O)O)C(=O)N[C@@H](CCC(N)=O)C(=O)N[C@@H](CCC(=O)O)C(=O)N[C@@H](CCCCN)C(=O)N[C@@H](CCC(N)=O)C(=O)N[C@@H](CCCCN)C(=O)N[C@@H](CCC(=O)O)C(=O)N[C@@H](CCC(N)=O)C(=O)N[C@@H](CCCNC(=N)N)C(=O)N[C@@H](CCC(=O)O)C(=O)N[C@@H](CCC(N)=O)C(=O)N[C@@H](C)C(=O)N[C@@H](CCC(=O)O)C(=O)N[C@H](C(=O)N[C@@H](CC(N)=O)C(=O)NC(C)(C)C(=O)N[C@@H](CCC(N)=O)C(=O)N[C@H](C(=O)N[C@@H](CC(C)C)C(=O)N[C@@H](C)C(=O)N[C@@H](CCC(N)=O)C(=O)N[C@H](C(N)=O)C(C)C)[C@@H](C)CC)[C@@H](C)O)[C@@H](C)CC)[C@@H](C)CC)C(C)C)C(C)C [Cmpd 213] (Ac-IVLSLD[dV]PIKLK([γGlu-C20 diacid])KILLEQEKQKEQREQAETN[Aib]QILAQV-NH2)
2,> 100,CC[C@H](C)[C@H](NC)C(=O)N[C@H](C(=O)N[C@@H](CC(C)C)C(=O)N[C@@H](CO)C(=O)N[C@@H](CC(C)C)C(=O)N[C@@H](CC(=O)O)C(=O)N[C@@H](C(=O)N1CCC[C@H]1C(=O)N[C@H](C(=O)N[C@@H](CCCCN)C(=O)N[C@@H](CC(C)C)C(=O)N[C@@H](CCCCNC(=O)CC[C@H](NC(=O)CCCCCCCCCCCCCCCCCCC(=O)O)C(=O)O)C(=O)N[C@@H](CCCCN)C(=O)N[C@H](C(=O)N[C@@H](CC(C)C)C(=O)N[C@@H](CC(C)C)C(=O)N[C@@H](CCC(=O)O)C(=O)N[C@@H](CCC(N)=O)C(=O)N[C@@H](CCC(=O)O)C(=O)N[C@@H](CCCCN)C(=O)N[C@@H](CCC(N)=O)C(=O)N[C@@H](CCCCN)C(=O)NC(C)(C)C(=O)N[C@@H](CCC(N)=O)C(=O)N[C@@H](CCCNC(=N)N)C(=O)N[C@@H](CCC(=O)O)C(=O)N[C@@H](CCC(N)=O)C(=O)N[C@@H](C)C(=O)N[C@@H](CCC(=O)O)C(=O)N[C@H](C(=O)N[C@@H](CC(N)=O)C(=O)NC(C)(C)C(=O)N[C@@H](CCC(N)=O)C(=O)N[C@H](C(=O)N[C@@H](CC(C)C)C(=O)N[C@@H](C)C(=O)N[C@@H](CCC(N)=O)C(=O)N[C@H](C(N)=O)C(C)C)[C@@H](C)CC)[C@@H](C)O)[C@@H](C)CC)[C@@H](C)CC)C(C)C)C(C)C [Cmpd 215] (H-[NMeI]VLSLD[dV]PIKLK([γGlu-C20 diacid])KILLEQEKQK[Aib]QREQAETN[Aib]QILAQV-NH2)
3,> 300,CC[C@H](C)[C@H](NC)C(=O)N[C@H](C(=O)N[C@@H](CC(C)C)C(=O)N[C@@H](CO)C(=O)N[C@@H](CC(C)C)C(=O)N[C@@H](CC(=O)O)C(=O)N[C@@H](C(=O)N1CCC[C@H]1C(=O)N[C@H](C(=O)N[C@@H](CCCCN)C(=O)N[C@@H](CC(C)C)C(=O)N[C@@H](CCCCNC(=O)CC[C@H](NC(=O)CCCCCCCCCCCCCCCCCCC(=O)O)C(=O)O)C(=O)N[C@@H](CCCCN)C(=O)N[C@H](C(=O)N[C@@H](CC(C)C)C(=O)N[C@@H](CC(C)C)C(=O)N[C@@H](CCC(=O)O)C(=O)N[C@@H](CCC(N)=O)C(=O)N[C@@H](CCC(=O)O)C(=O)N[C@@H](CCCCN)C(=O)N[C@@H](CCC(N)=O)C(=O)N[C@@H](CCCCN)C(=O)N[C@@H](C)C(=O)N[C@@H](CCC(N)=O)C(=O)N[C@@H](CCCNC(=N)N)C(=O)N[C@@H](CCC(=O)O)C(=O)N[C@@H](CCC(N)=O)C(=O)N[C@@H](C)C(=O)N[C@@H](CCC(=O)O)C(=O)N[C@H](C(=O)N[C@@H](CC(N)=O)C(=O)NC(C)(C)C(=O)N[C@@H](CCC(N)=O)C(=O)N[C@H](C(=O)N[C@@H](CC(C)C)C(=O)N[C@@H](C)C(=O)N[C@@H](CCC(N)=O)C(=O)N[C@H](C(N)=O)C(C)C)[C@@H](C)CC)[C@@H](C)O)[C@@H](C)CC)[C@@H](C)CC)C(C)C)C(C)C [Cmpd 217] (H-[NMeI]VLSLD[dV]PIKLK([γGlu-C20 diacid])KILLEQEKQKAQREQAETN[Aib]QILAQV-NH2)
4,> 300,CC[C@H](C)[C@H](NC)C(=O)N[C@H](C(=O)N[C@@H](CC(C)C)C(=O)N[C@@H](CO)C(=O)N[C@@H](CC(C)C)C(=O)N[C@@H](CC(=O)O)C(=O)N[C@@H](C(=O)N1CCC[C@H]1C(=O)N[C@H](C(=O)N[C@@H](CCCCN)C(=O)N[C@@H](CC(C)C)C(=O)N[C@@H](CCCCNC(=O)CC[C@H](NC(=O)CCCCCCCCCCCCCCCCCCC(=O)O)C(=O)O)C(=O)N[C@@H](CCCCN)C(=O)N[C@H](C(=O)N[C@@H](CC(C)C)C(=O)N[C@@H](CC(C)C)C(=O)N[C@@H](CCC(=O)O)C(=O)N[C@@H](CCC(N)=O)C(=O)N[C@@H](CCC(=O)O)C(=O)N[C@@H](CCCCN)C(=O)N[C@@H](CCC(N)=O)C(=O)N[C@@H](CCCCN)C(=O)N[C@@H](CCC(=O)O)C(=O)N[C@@H](CCC(N)=O)C(=O)N[C@@H](CCCNC(=N)N)C(=O)N[C@@H](CCC(=O)O)C(=O)N[C@@H](CCC(N)=O)C(=O)N[C@@H](C)C(=O)N[C@@H](CCC(=O)O)C(=O)N[C@H](C(=O)N[C@@H](CC(N)=O)C(=O)NC(C)(C)C(=O)N[C@@H](CCC(N)=O)C(=O)N[C@H](C(=O)N[C@@H](CC(C)C)C(=O)N[C@@H](C)C(=O)N[C@@H](CCC(N)=O)C(=O)N[C@H](C(N)=O)C(C)C)[C@@H](C)CC)[C@@H](C)O)[C@@H](C)CC)[C@@H](C)CC)C(C)C)C(C)C [Cmpd 218] (H-[NMeI]VLSLD[dV]PIKLK([γGlu-C20 diacid])KILLEQEKQKEQREQAETN[Aib]QILAQV-NH2)
5,88.2,CCCCC(=O)N[C@H](C(=O)N[C@@H](CC(C)C)C(=O)N[C@@H](CO)C(=O)N[C@@H](CC(C)C)C(=O)N[C@@H](CC(=O)O)C(=O)N[C@@H](C(=O)N1CCC[C@H]1C(=O)N[C@H](C(=O)N[C@@H](CCCCN)C(=O)N[C@@H](CC(C)C)C(=O)N[C@@H](CCCCNC(=O)CC[C@H](NC(=O)CCCCCCCCCCCCCCCCCCC(=O)O)C(=O)O)C(=O)N[C@@H](CCCCN)C(=O)N[C@H](C(=O)N[C@@H](CC(C)C)C(=O)N[C@@H](CC(C)C)C(=O)N[C@@H](CCC(=O)O)C(=O)N[C@@H](CCC(N)=O)C(=O)N[C@@H](CCC(=O)O)C(=O)N[C@@H](CCCCN)C(=O)N[C@@H](CCC(N)=O)C(=O)N[C@@H](CCCCN)C(=O)N[C@@H](CCCCN)C(=O)N[C@@H](CCC(N)=O)C(=O)N[C@@H](CCCNC(=N)N)C(=O)N[C@@H](CCC(=O)O)C(=O)N[C@@H](CCC(N)=O)C(=O)N[C@@H](C)C(=O)N[C@@H](CCC(=O)O)C(=O)N[C@H](C(=O)N[C@@H](CC(N)=O)C(=O)NC(C)(C)C(=O)N[C@@H](CCC(N)=O)C(=O)N[C@H](C(=O)N[C@@H](CC(C)C)C(=O)N[C@@H](C)C(=O)N[C@@H](CCC(N)=O)C(=O)N[C@H](C(N)=O)C(C)C)[C@@H](C)CC)[C@@H](C)O)[C@@H](C)CC)[C@@H](C)CC)C(C)C)C(C)C [Cmpd 219] (Pentanoyl-VLSLD[dV]PIKLK([γGlu-C20 diacid])KILLEQEKQKKQREQAETN[Aib]QILAQV-NH2)
6,> 300,CCCCCCCCCC(=O)N[C@H](C(=O)N[C@@H](CC(C)C)C(=O)N[C@@H](CO)C(=O)N[C@@H](CC(C)C)C(=O)N[C@@H](CC(=O)O)C(=O)N[C@@H](C(=O)N1CCC[C@H]1C(=O)N[C@H](C(=O)N[C@@H](CCCCN)C(=O)N[C@@H](CC(C)C)C(=O)N[C@@H](CCCCNC(=O)CC[C@H](NC(=O)CCCCCCCCCCCCCCCCCCC(=O)O)C(=O)O)C(=O)N[C@@H](CCCCN)C(=O)N[C@H](C(=O)N[C@@H](CC(C)C)C(=O)N[C@@H](CC(C)C)C(=O)N[C@@H](CCC(=O)O)C(=O)N[C@@H](CCC(N)=O)C(=O)N[C@@H](CCC(=O)O)C(=O)N[C@@H](CCCCN)C(=O)N[C@@H](CCC(N)=O)C(=O)N[C@@H](CCCCN)C(=O)N[C@@H](CCCCN)C(=O)N[C@@H](CCC(N)=O)C(=O)N[C@@H](CCCNC(=N)N)C(=O)N[C@@H](CCC(=O)O)C(=O)N[C@@H](CCC(N)=O)C(=O)N[C@@H](C)C(=O)N[C@@H](CCC(=O)O)C(=O)N[C@H](C(=O)N[C@@H](CC(N)=O)C(=O)NC(C)(C)C(=O)N[C@@H](CCC(N)=O)C(=O)N[C@H](C(=O)N[C@@H](CC(C)C)C(=O)N[C@@H](C)C(=O)N[C@@H](CCC(N)=O)C(=O)N[C@H](C(N)=O)C(C)C)[C@@H](C)CC)[C@@H](C)O)[C@@H](C)CC)[C@@H](C)CC)C(C)C)C(C)C [Cmpd 223] (Decanoyl-VLSLD[dV]PIKLK([γGlu-C20 diacid])KILLEQEKQKKQREQAETN[Aib]QILAQV-NH2)
7,47.5,CC[C@H](C)[C@H](NC(C)=O)C(=O)N[C@H](C(=O)N[C@@H](CC(C)C)C(=O)N[C@@H](CO)C(=O)N[C@@H](CC(C)C)C(=O)N[C@@H](CC(=O)O)C(=O)N[C@@H](C(=O)N1CCC[C@H]1C(=O)N[C@H](C(=O)N[C@@H](CCCCN)C(=O)N[C@@H](CC(C)C)C(=O)N[C@@H](CCCCNC(=O)COCCOCCNC(=O)CC[C@H](NC(=O)CCCCCCCCCCCCCCCCCCC(=O)O)C(=O)O)C(=O)N[C@@H](CCCCN)C(=O)N[C@H](C(=O)N[C@@H](CC(C)C)C(=O)N[C@@H](CC(C)C)C(=O)N[C@@H](CCC(=O)O)C(=O)N[C@@H](CCC(N)=O)C(=O)N[C@@H](CCC(=O)O)C(=O)N[C@@H](CCCCN)C(=O)N[C@@H](CCC(N)=O)C(=O)N[C@@H](CCCCN)C(=O)N[C@@H](CCC(=O)O)C(=O)N[C@@H](CCC(N)=O)C(=O)N[C@@H](CCCNC(=N)N)C(=O)N[C@@H](CCC(=O)O)C(=O)N[C@@H](CCC(N)=O)C(=O)N[C@@H](C)C(=O)N[C@@H](CCC(=O)O)C(=O)N[C@H](C(=O)N[C@@H](CC(N)=O)C(=O)NC(C)(C)C(=O)N[C@@H](CCC(N)=O)C(=O)N[C@H](C(=O)N[C@@H](CC(C)C)C(=O)N[C@@H](C)C(=O)N[C@@H](CCC(N)=O)C(=O)N[C@H](C(N)=O)C(C)C)[C@@H](C)CC)[C@@H](C)O)[C@@H](C)CC)[C@@H](C)CC)C(C)C)C(C)C [Cmpd 231] (Ac-IVLSLD[dV]PIKLK([AEEA-γGlu-C20 diacid])KILLEQEKQKEQREQAETN[Aib]QILAQV-NH2)
